Source: PMC11124822, “Discovery and Anticancer Screening of Novel Oxindole-Based Derivative Bearing Pyridyl Group as Potent and Selective Dual FLT3/CDK2 Kinase Inhibitor” (Pharmaceuticals, 2024)

Key:
HL-60(TB) = test: NCI-60 antiproliferative screen (SRB); assay type: cell-based, human; settings: Homo sapiens; 10 µM single dose, 48 h; HL-60(TB) (Leukemia); read-out: Growth inhibition (%)
K-562 = test: NCI-60 antiproliferative screen (SRB); assay type: cell-based, human; settings: Homo sapiens, K562; 10 µM single dose, 48 h; K-562 (Leukemia); read-out: Growth inhibition (%)
MOLT-4 = test: NCI-60 antiproliferative screen (SRB); assay type: cell-based; settings: Homo sapiens; 10 µM single dose, 48 h; MOLT-4 (Leukemia); read-out: Growth inhibition (%)
RPMI-8226 = test: NCI-60 antiproliferative screen (SRB); assay type: cell-based, human; settings: Homo sapiens; 10 µM single dose, 48 h; RPMI-8226 (Leukemia); read-out: Growth inhibition (%)
A549/ATCC = test: NCI-60 antiproliferative screen (SRB); assay type: cell-based, human; settings: Homo sapiens; 10 µM single dose, 48 h; A549/ATCC (NSCLC); read-out: Growth inhibition (%)
HOP-62 = test: NCI-60 antiproliferative screen (SRB); assay type: cell-based, human; settings: Homo sapiens; 10 µM single dose, 48 h; HOP-62 (NSCLC); read-out: Growth inhibition (%)
HOP-92 = test: NCI-60 antiproliferative screen (SRB); assay type: cell-based, human; settings: Homo sapiens; 10 µM single dose, 48 h; HOP-92 (NSCLC); read-out: Growth inhibition (%)
NCI-H322M = test: NCI-60 antiproliferative screen (SRB); assay type: cell-based, human; settings: Homo sapiens; 10 µM single dose, 48 h; NCI-H322M (NSCLC); read-out: Growth inhibition (%)
COLO 205 = test: NCI-60 antiproliferative screen (SRB); assay type: cell-based, human; settings: Homo sapiens; 10 µM single dose, 48 h; COLO 205 (Colon); read-out: Growth inhibition (%)
HCC-2998 = test: NCI-60 antiproliferative screen (SRB); assay type: cell-based, human; settings: Homo sapiens; 10 µM single dose, 48 h; HCC-2998 (Colon); read-out: Growth inhibition (%)
HT29 = test: NCI-60 antiproliferative screen (SRB); assay type: cell-based, human; settings: Homo sapiens, HT-29; 10 µM single dose, 48 h; HT29 (Colon); read-out: Growth inhibition (%)
KM12 = test: NCI-60 antiproliferative screen (SRB); assay type: cell-based, human; settings: Homo sapiens; 10 µM single dose, 48 h; KM12 (Colon); read-out: Growth inhibition (%)
SW-620 = test: NCI-60 antiproliferative screen (SRB); assay type: cell-based, human; settings: Homo sapiens; 10 µM single dose, 48 h; SW-620 (Colon); read-out: Growth inhibition (%)
SNB-19 = test: NCI-60 antiproliferative screen (SRB); assay type: cell-based, human; settings: Homo sapiens; 10 µM single dose, 48 h; SNB-19 (CNS); read-out: Growth inhibition (%)
U251 = test: NCI-60 antiproliferative screen (SRB); assay type: cell-based, human; settings: Homo sapiens, U-251; 10 µM single dose, 48 h; U251 (CNS); read-out: Growth inhibition (%)
MALME-3M = test: NCI-60 antiproliferative screen (SRB); assay type: cell-based, human; settings: Homo sapiens; 10 µM single dose, 48 h; MALME-3M (Melanoma); read-out: Growth inhibition (%)
SK-MEL-2 = test: NCI-60 antiproliferative screen (SRB); assay type: cell-based, human; settings: Homo sapiens; 10 µM single dose, 48 h; SK-MEL-2 (Melanoma); read-out: Growth inhibition (%)
SK-MEL-5 = test: NCI-60 antiproliferative screen (SRB); assay type: cell-based, human; settings: Homo sapiens; 10 µM single dose, 48 h; SK-MEL-5 (Melanoma); read-out: Growth inhibition (%)
A498 = test: NCI-60 antiproliferative screen (SRB); assay type: cell-based, human; settings: Homo sapiens; 10 µM single dose, 48 h; A498 (Renal); read-out: Growth inhibition (%)
RXF 393 = test: NCI-60 antiproliferative screen (SRB); assay type: cell-based, human; settings: Homo sapiens; 10 µM single dose, 48 h; RXF 393 (Renal); read-out: Growth inhibition (%)
TK-10 = test: NCI-60 antiproliferative screen (SRB); assay type: cell-based, human; settings: Homo sapiens; 10 µM single dose, 48 h; TK-10 (Renal); read-out: Growth inhibition (%)
UO-31 = test: NCI-60 antiproliferative screen (SRB); assay type: cell-based, human; settings: Homo sapiens; 10 µM single dose, 48 h; UO-31 (Renal); read-out: Growth inhibition (%)
PC-3 = test: NCI-60 antiproliferative screen (SRB); assay type: cell-based, human; settings: Homo sapiens; 10 µM single dose, 48 h; PC-3 (Prostate); read-out: Growth inhibition (%)
MCF7 = test: NCI-60 antiproliferative screen (SRB); assay type: cell-based, human; settings: Homo sapiens; 10 µM single dose, 48 h; MCF7 (Breast); read-out: Growth inhibition (%)
MDA-MB-231 = test: NCI-60 antiproliferative screen (SRB); assay type: cell-based, human; settings: Homo sapiens; 10 µM single dose, 48 h; MDA-MB-231 (Breast); read-out: Growth inhibition (%)
T-47D = test: NCI-60 antiproliferative screen (SRB); assay type: cell-based, human; settings: Homo sapiens, T47D; 10 µM single dose, 48 h; T-47D (Breast); read-out: Growth inhibition (%)
MDA-MB-468 = test: NCI-60 antiproliferative screen (SRB); assay type: cell-based, human; settings: Homo sapiens; 10 µM single dose, 48 h; MDA-MB-468 (Breast); read-out: Growth inhibition (%)
SR = test: NCI-60 antiproliferative screen (SRB); settings: Homo sapiens, 48 h, read-out: Growth inhibition (%)
Procedure: (§1) Anticancer activity was tested against 60 cancer cell lines (NCI-60) after 48h treatments with a single dosage of 10 μM of compounds by using sulforhodamine B assay [39] on the traditional 96-well platform. […] The human cancer cell lines of the NCI-60 panel are grown in RPMI 1640 medium supplemented with 5% FBS (fetal bovine serum) and 2 mM L-glutamine. […] For further analysis of promising compounds, five dose screens were performed against the NCI-60 panel. Drug treatments are performed in 5 doses using 10-fold or ½ log dose dilutions.

SNB-75 = test: NCI-60 antiproliferative screen (SRB); settings: Homo sapiens, SNB-75, 48 h, read-out: Growth inhibition (%)
Procedure: as §1

OVCAR-3 = test: NCI-60 antiproliferative screen (SRB); assay type: cell-based, human; settings: Homo sapiens; 10 µM single dose, 48 h; OVCAR-3 (Ovarian); read-out: Growth inhibition (%)

SMILES	inhibition at 10 µM (HL-60(TB)) [%]	inhibition at 10 µM (K-562) [%]	inhibition at 10 µM (MOLT-4) [%]	inhibition at 10 µM (RPMI-8226) [%]	inhibition at 10 µM (A549/ATCC) [%]	inhibition at 10 µM (HOP-62) [%]	inhibition at 10 µM (HOP-92) [%]	inhibition at 10 µM (NCI-H322M) [%]	inhibition at 10 µM (COLO 205) [%]	inhibition at 10 µM (HCC-2998) [%]	inhibition at 10 µM (HT29) [%]	inhibition at 10 µM (KM12) [%]	inhibition at 10 µM (SNB-19) [%]	inhibition at 10 µM (U251) [%]	inhibition at 10 µM (MALME-3M) [%]	inhibition at 10 µM (SK-MEL-2) [%]	inhibition at 10 µM (SK-MEL-5) [%]	inhibition at 10 µM (A498) [%]	inhibition at 10 µM (TK-10) [%]	inhibition at 10 µM (UO-31) [%]	other results
O=C1Nc2cc(Cl)ccc2C1=Cc1ccc(OCc2ccccc2)cc1 (mixture of isomers) [Compound 5d, (E/Z)-3-[4-(Benzyloxy)benzylidene]-6-chloroindolin-2-one]	-13.1	6.91	0.86	-7.36	-4.59	3.85	-8.67	0.49	-9.74	-1.79	-5.27	4.92	-3.09	-4.25	-15.4	-11.3	2.83	6.98	-54	23.8	inhibition at 10 µM (SW-620): 0.6%; inhibition at 10 µM (RXF 393): -14.2%; inhibition at 10 µM (PC-3): 11.8%; inhibition at 10 µM (MCF7): 38.4%; inhibition at 10 µM (MDA-MB-231): -3.65%; inhibition at 10 µM (T-47D): 4.32%; inhibition at 10 µM (MDA-MB-468): 1.52%; melting point: 259 to 261 °C; inhibition at 10 µM (SR): -4.93%; inhibition at 10 µM (SNB-75): 26.7%
O=C1Nc2ccccc2C1=Cc1ccc(OCc2ccccn2)cc1 (mixture of isomers) [Compound 5e, (E/Z)-3-[4-(Pyridin-2-ylmethoxy]benzylidene) indolin-2-one]	38.8	59.2	62.5	64	29.2	25.6	69	29.5	-14.7	1.6	16.2	61.3	39.3	46.5	25.4	-12.2	48.4	16.4	12.7	61.2	inhibition at 10 µM (OVCAR-3): 18.2%; inhibition at 10 µM (RXF 393): 44.8%; inhibition at 10 µM (PC-3): 44.3%; inhibition at 10 µM (MCF7): 50.8%; inhibition at 10 µM (T-47D): 54.9%; inhibition at 10 µM (MDA-MB-468): 61.7%; melting point: 221 to 224 °C; inhibition at 10 µM (SR): 57.7%; inhibition at 10 µM (SNB-75): 34.7%
O=C1Nc2ccc(Cl)cc2C1=Cc1ccc(OCc2ccccn2)cc1 (mixture of isomers) [Compound 5g, (E/Z)-5-Chloro-3-[4-(pyridin-2-ylmethoxy)benzylidene] indolin-2-one]	15	49	53.1	26.1	35.6	54.4	27.9	35.8	10.9	-4.51	32.5	21.2	49.3	76.3	61.5	-11.4	10.5	54.9	9.89	40.5	inhibition at 10 µM (SW-620): 52.5%; inhibition at 10 µM (OVCAR-3): 42.7%; inhibition at 10 µM (PC-3): 37.9%; inhibition at 10 µM (MCF7): 71.1%; inhibition at 10 µM (MDA-MB-231): 78.3%; inhibition at 10 µM (T-47D): 31%; inhibition at 10 µM (MDA-MB-468): 49.6%; melting point: 219 to 220 °C; inhibition at 10 µM (SR): 45.1%; inhibition at 10 µM (SNB-75): -12.6%
O=C1Nc2cc(Cl)ccc2C1=Cc1ccc(OCc2ccccn2)cc1 (mixture of isomers) [Compound 5h, (E/Z)-6-Chloro-3-[4-(pyridin-2-ylmethoxy)benzylidene]indolin-2-one]	5.33	31.4	61.5	32.4	62.5	18.9	35.8	24.7	-3.47	16.7	19.7	21.6	20	61.6	18	-10.3	24	-11.5	-0.24	38	inhibition at 10 µM (OVCAR-3): 6.16%; inhibition at 10 µM (RXF 393): 38.2%; inhibition at 10 µM (PC-3): 54.7%; inhibition at 10 µM (MCF7): 63.7%; inhibition at 10 µM (T-47D): 38%; inhibition at 10 µM (MDA-MB-468): 60.8%; melting point: 260 to 263 °C; inhibition at 10 µM (SR): 42.8%; inhibition at 10 µM (SNB-75): 63.3%
